# Data as given in PubChem BioAssay (NCI).
#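 Growth conditions: 96-well plates. Treatment: test compound, 48 hours, 5 concentrations. Analysis: linear interpolation between bracketing concentrations; unreached endpoints set to highest concentration. Abbreviation: GI50, concentration required for 50% inhibition of growth. TGI: total growth inhibition.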
# How the values were obtained:
# Assay in all cases: NCI tumour cell line growth inhibition, 48 h
# [1] = test system: 786-0 renal
# [2] = test system: A549 NSCLC
# [3] = test system: ACHN renal
# [4] = test system: BT-549 breast
# [5] = test system: CAKI-1 renal
# [6] = test system: CCRF-CEM leukemia
# [7] = test system: COLO 205 colon
# [8] = test system: DU-145 prostate
# [9] = test system: EKVX NSCLC
# [10] = test system: HCC-2998 colon
# [11] = test system: HCT-116 colon
# [12] = test system: HCT-15 colon
# [13] = test system: HL-60(TB) leukemia
# [14] = test system: HOP-62 NSCLC
# [15] = test system: HOP-92 NSCLC
# [16] = test system: HT29 colon
# [17] = test system: K-562 leukemia
# [18] = test system: KM12 colon
# [19] = test system: M14 melanoma
# [20] = test system: MALME-3M melanoma
# [21] = test system: MCF7 breast
# [22] = test system: MDA-MB-231 breast
# [23] = test system: MDA-MB-435
# [24] = test system: MOLT-4 leukemia
# [25] = test system: NCI-H226 lung
# [26] = test system: NCI-H23 lung
# [27] = test system: NCI-H460 lung
# [28] = test system: NCI-H522 lung
# [29] = test system: NCI/ADR-RES ovarian
# [30] = test system: OVCAR-3 ovarian
# [31] = test system: OVCAR-4 ovarian
# [32] = test system: OVCAR-5 ovarian
# [33] = test system: OVCAR-8 ovarian
# [34] = test system: PC-3 prostate
# [35] = test system: RPMI-8226 leukemia
# [36] = test system: RXF 393 renal
# [37] = test system: SF-268 CNS
# [38] = test system: SF-295 CNS
# [39] = test system: SK-MEL-2 melanoma
# [40] = test system: SN12C renal
# [41] = test system: SNB-19 CNS
# [42] = test system: SR leukemia
# [43] = test system: SW-620 colon
# [44] = test system: T-47D breast
# [45] = test system: TK-10 renal
# [46] = test system: U251 CNS
# [47] = test system: UACC-257 melanoma
# [48] = test system: UO-31 renal
# [49] = test system: A498 renal
# [50] = test system: HS 578T breast
# [51] = test system: IGROV1 ovarian
# [52] = test system: SF-539 CNS
# [53] = test system: SK-MEL-28 melanoma
# [54] = test system: SK-MEL-5 melanoma
# [55] = test system: SK-OV-3 ovarian
# [56] = test system: UACC-62 melanoma
smiles,measurement,setting,value
CC1(C)C(=O)N(O)C(C)(C)N1N=O,TGI,[1],> 10 µM
same,TGI,[2],> 10 µM
same,TGI,[3],> 10 µM
same,TGI,[4],> 10 µM
same,TGI,[5],> 10 µM
same,TGI,[6],> 10 µM
same,TGI,[7],> 10 µM
same,TGI,[8],> 10 µM
same,TGI,[9],> 10 µM
same,TGI,[10],> 10 µM
same,TGI,[11],> 10 µM
same,TGI,[12],> 10 µM
same,TGI,[13],> 10 µM
same,TGI,[14],> 10 µM
same,TGI,[15],> 10 µM
same,TGI,[16],> 10 µM
same,TGI,[17],> 10 µM
same,TGI,[18],> 10 µM
same,TGI,[19],> 10 µM
same,TGI,[20],> 10 µM
same,TGI,[21],> 10 µM
same,TGI,[22],> 10 µM
same,TGI,[23],> 10 µM
same,TGI,[24],> 10 µM
same,TGI,[25],> 10 µM
same,TGI,[26],> 10 µM
same,TGI,[27],> 10 µM
same,TGI,[28],> 10 µM
same,TGI,[29],> 10 µM
same,TGI,[30],> 10 µM
same,TGI,[31],> 10 µM
same,TGI,[32],> 10 µM
same,TGI,[33],> 10 µM
same,TGI,[34],> 10 µM
same,TGI,[35],> 10 µM
same,TGI,[36],> 10 µM
same,TGI,[37],> 10 µM
same,TGI,[38],> 10 µM
same,TGI,[39],> 10 µM
same,TGI,[40],> 10 µM
same,TGI,[41],> 10 µM
same,TGI,[42],> 10 µM
same,TGI,[43],> 10 µM
same,TGI,[44],> 10 µM
same,TGI,[45],> 10 µM
same,TGI,[46],> 10 µM
same,TGI,[47],> 10 µM
same,TGI,[48],> 10 µM
Cc1cc(S(N)(=O)=O)c(S/C(=N\Nc2ccc([N+](=O)[O-])cc2)c2ccc(O)cc2)cc1Cl,GI50,[1],3.8 µM
same,TGI,[1],13.5 µM
same,GI50,[49],7.56 µM
same,TGI,[49],20.5 µM
same,GI50,[2],4.06 µM
same,TGI,[2],29.6 µM
same,GI50,[3],3.09 µM
same,TGI,[3],12.9 µM
same,GI50,[4],7.68 µM
same,TGI,[4],22.7 µM
same,GI50,[5],2300 nM
same,TGI,[5],5.22 µM
same,GI50,[7],4.21 µM
same,TGI,[7],17.6 µM
same,GI50,[8],5.31 µM
same,TGI,[8],23.9 µM
same,GI50,[9],6.82 µM
same,TGI,[9],22.6 µM
same,GI50,[10],1650 nM
same,TGI,[10],3.87 µM
same,GI50,[11],2890 nM
same,TGI,[11],10.6 µM
same,GI50,[12],3.54 µM
same,TGI,[12],23.2 µM
same,GI50,[13],1980 nM
same,TGI,[13],> 100 µM
same,GI50,[14],5.02 µM
same,TGI,[14],16.8 µM
same,GI50,[50],2920 nM
same,TGI,[50],9.27 µM
same,GI50,[16],3.29 µM
same,TGI,[16],7.35 µM
same,GI50,[51],4.62 µM
same,TGI,[51],19.9 µM
same,GI50,[17],2700 nM
same,TGI,[17],> 100 µM
same,GI50,[18],1960 nM
same,TGI,[18],4.14 µM
same,GI50,[19],2610 nM
same,TGI,[19],7.15 µM
same,GI50,[20],1730 nM
same,TGI,[20],4.37 µM
same,GI50,[21],2190 nM
same,TGI,[21],5.06 µM
same,GI50,[22],1780 nM
same,TGI,[22],4.67 µM
same,GI50,[23],1800 nM
same,TGI,[23],3.44 µM
same,GI50,[24],2970 nM
same,TGI,[24],> 100 µM
same,GI50,[25],2670 nM
same,TGI,[25],7.08 µM
same,GI50,[26],2420 nM
same,TGI,[26],7.54 µM
same,GI50,[27],2940 nM
same,TGI,[27],10.1 µM
same,GI50,[28],6.07 µM
same,TGI,[28],43.5 µM
same,GI50,[29],2640 nM
same,TGI,[29],8.57 µM
same,GI50,[30],2060 nM
same,TGI,[30],4.04 µM
same,GI50,[31],3.43 µM
same,TGI,[31],7.94 µM
same,GI50,[32],2090 nM
same,TGI,[32],4.71 µM
same,GI50,[33],5.72 µM
same,TGI,[33],21.7 µM
same,GI50,[34],3.26 µM
same,TGI,[34],8.55 µM
same,GI50,[35],1660 nM
same,TGI,[35],4.3 µM
same,GI50,[36],676 nM
same,TGI,[36],3.5 µM
same,GI50,[37],2220 nM
same,TGI,[37],8.19 µM
same,GI50,[38],2070 nM
same,TGI,[38],3.92 µM
same,GI50,[52],3.39 µM
same,TGI,[52],8.74 µM
same,GI50,[39],3.9 µM
same,TGI,[39],53.3 µM
same,GI50,[53],2620 nM
same,TGI,[53],5.73 µM
same,GI50,[54],1860 nM
same,TGI,[54],3.38 µM
same,GI50,[55],4.32 µM
same,TGI,[55],18.4 µM
same,GI50,[40],2380 nM
same,TGI,[40],5.29 µM
same,GI50,[41],4.46 µM
same,TGI,[41],16.1 µM
same,GI50,[42],51.6 µM
same,TGI,[42],> 100 µM
same,GI50,[43],3.54 µM
same,TGI,[43],11.6 µM
same,GI50,[44],2540 nM
same,TGI,[44],6.64 µM
same,GI50,[45],2010 nM
same,TGI,[45],5.16 µM
same,GI50,[46],2870 nM
same,TGI,[46],11.1 µM
same,GI50,[47],5.22 µM
same,TGI,[47],19.3 µM
same,GI50,[56],1790 nM
same,TGI,[56],3.84 µM
same,GI50,[48],5.66 µM
same,TGI,[48],23 µM
